# Laboratory results published in patent publication US9029542B2 (priority 2011, dated 2015).
# “And” between values parts separate entries of the source, which are not always exact repeats. Equal values may be shown once. Read-outs that look alike come from different tables or passages of the source.
# Assays:
# Abutilon theophrasti = test: whole plant or invertebrate; assay type: in vivo; details: for pest or weed control at 150 g/ha: Abutilon theophrasti, 600 h, read-out: Postemergence weed clearing activity, Abutilon theophrasti
# Eclipta prostrata = test: whole plant or invertebrate; assay type: in vivo; details: for pest or weed control at 150 g/ha: Eclipta prostrata, 600 h, read-out: weed clearing activity, Eclipta prostrata Postemergence; for Weed clearing activity, Eclipta prostrata, Postemergence: in vivo
# Amaranthus retroflexus = test: whole plant or invertebrate; assay type: in vivo; details: for pest or weed control at 150 g/ha: Amaranthus retroflexus, 600 h, read-out: weed clearing activity, Amaranthus retroflexus Postemergence
# Sorghum = test: whole plant or invertebrate; assay type: in vivo
# Radish = test: whole plant or invertebrate; assay type: in vivo; details: Raphanus sativus
# cockspur grass = test: whole plant or invertebrate; assay type: in vivo; details: Echinochloa crus-galli
# Wheat = test: whole plant or invertebrate; assay type: in vivo; details: Triticum aestivum
# Capsella bursa-pastoris = test: whole plant or invertebrate; assay type: in vivo; details: 600 h, read-out: weed clearing activity, Capsella bursa-pastoris Postemergence
# rape = test: animal or person; assay type: in vivo
# Cucumber = test: whole plant or invertebrate; assay type: in vivo; details: Cucumis sativus
# [1] = test system: weeds of the expanded weed killing spectrum; details: in vivo
# [2] = read-out: inhibitory activity, Sorghum Root
# [3] = read-out: inhibitory activity, Sorghum Stem
# [4] = read-out: inhibitory activity, Radish Root
# [5] = read-out: inhibitory activity, Radish Stem
# [6] = read-out: inhibitory activity, Cockspur grass Root
# [7] = read-out: inhibitory activity, Cockspur grass Stem
# [8] = read-out: inhibitory activity, Wheat Root
# [9] = read-out: inhibitory activity, Wheat Stem
# [10] = read-out: inhibitory activity, Rape Root
# [11] = read-out: inhibitory activity, Rape Stem
# [12] = read-out: inhibitory activity, Cucumber Root
# [13] = read-out: inhibitory activity, Cucumber Stem
SMILES,pest or weed control at 150 g/ha (Abutilon theophrasti),pest or weed control at 150 g/ha (Eclipta prostrata),pest or weed control at 150 g/ha (Amaranthus retroflexus),inhibition at 100 µg/mL (Sorghum; [2]),inhibition at 100 µg/mL (Sorghum; [3]),inhibition at 100 µg/mL (Radish; [4]),inhibition at 100 µg/mL (Radish; [5]),inhibition at 100 µg/mL (cockspur grass; [6]),inhibition at 100 µg/mL (cockspur grass; [7]),inhibition at 100 µg/mL (Wheat; [8]),inhibition at 100 µg/mL (Wheat; [9]),pest or weed control at 150 g/ha (Capsella bursa-pastoris),inhibition at 100 µg/mL (rape; [10]),inhibition at 100 µg/mL (rape; [11]),inhibition at 100 µg/mL (Cucumber; [12]),inhibition at 100 µg/mL (Cucumber; [13]),"Weed clearing activity, Eclipta prostrata, Postemergence (Eclipta prostrata)",other results
"Cc1cc(OCC(=O)OC(C)P2(=O)OCC(C)(C)CO2)ccc1Cl (stereo not drawn) [Compound 32, 2-(3-methyl-4-chlorophenoxyethylacyloxy)(methyl)methyl-5,5-dimethyl-1,3,2-dioxaphosphorinan-2-one phosphonate]",70%,60%,60%,0%,0%,90%,60%,0%,0%,0%,0%,70%,90%,90%,60%,90%,–,–
"Cc1cc(Cl)ccc1OCC(=O)OC(C)P1(=O)OCC(C)(C)CO1 (stereo not drawn) [Compound 34, 2-(2-methyl-4-chlorophenoxyethylacyloxy)(methyl)methyl-5,5-dimethyl-1,3,2-dioxaphosphorinan-2-one phosphonate]",75%,80%,90%,100%,100%,100%,100%,70%,80%,90%,60%,90%,100%,100%,100%,100%,85%,"Activity of expanded weed killing spectrum, Alligator alternanthera [1]: 60% and 70%; Activity of expanded weed killing spectrum, Ammania [1]: 50% and 60%; Activity of expanded weed killing spectrum, Cabbage [1]: 70%; Activity of expanded weed killing spectrum, Capsella bursa-pastoris [1]: 85%; Activity of expanded weed killing spectrum, Cayenne pepper [1]: 70%; Activity of expanded weed killing spectrum, Cucumis sativus [1]: 60% and 70%; Activity of expanded weed killing spectrum, Monochoria [1]: 30% and 60%; Activity of expanded weed killing spectrum, Pakchoi [1]: 70%; Activity of expanded weed killing spectrum, Pigweed [1]: 70% and 75%; Activity of expanded weed killing spectrum, Rape [1]: 85%; Activity of expanded weed killing spectrum, Rumex acetosa [1]: 70% and 75%; Activity of expanded weed killing spectrum, Tomato [1]: 60% and 70%; Activity of expanded weed killing spectrum, Vicia cracca [1]: 70%"
"CC(OC(=O)COc1ccc(F)cc1Cl)P1(=O)OCC(C)(C)CO1 (stereo not drawn) [Compound 37, 2-(2-chloro-4-fluorphenoxyethylacyloxy)(methyl)methyl-5,5-dimethyl-1,3,2-dioxaphosphorinan-2-one phosphonate]",90%,85%,90%,0%,0%,90%,30%,0%,0%,60%,30%,95%,100%,100%,60%,30%,60% and 85%,"Weed clearing activity, Abutilon theophrasti, Postemergence (Abutilon theophrasti; in vivo): 70%; Weed clearing activity, Amaranthus retroflexus, Postemergence (Amaranthus retroflexus; in vivo): 60%; Activity of expanded weed killing spectrum, Alligator alternanthera [1]: 60%; Activity of expanded weed killing spectrum, Ammania [1]: 60%; Activity of expanded weed killing spectrum, Cabbage [1]: 70%; Activity of expanded weed killing spectrum, Cayenne pepper [1]: 60% and 75%; Activity of expanded weed killing spectrum, Cucumis sativus [1]: 60% and 70%; Activity of expanded weed killing spectrum, Eclipta prostrata [1]: 60%; Activity of expanded weed killing spectrum, Monochoria [1]: 50%; Activity of expanded weed killing spectrum, Rape [1]: 70% and 75%; Activity of expanded weed killing spectrum, Rumex acetosa [1]: 70% and 75%; Activity of expanded weed killing spectrum, Vicia cracca [1]: 70%"
"CC(Oc1ccc(Cl)cc1)C(=O)OC(C)P1(=O)OCC(C)(C)CO1 (stereo not drawn) [Compound 38, 2-(4-chlorophenoxyisopropylacyloxy)(methyl)methyl-5,5-dimethyl-1,3,2-dioxaphosphorinan-2-one phosphonate]",60%,60%,50%,0%,0%,70%,30%,0%,0%,30%,30%,70%,100%,100%,60%,30%,–,–
"CC(Oc1ccc(Cl)cc1Cl)C(=O)OC(C)P1(=O)OCC(C)(C)CO1 (stereo not drawn) [Compound 39, 2-(2,4-dichlorophenoxyisopropylacyloxy)(methyl)methyl-5,5-dimethyl-1,3,2-dioxaphosphorinan-2-one phosphonate]",70%,60%,70%,70%,60%,100%,30%,0%,0%,60%,60%,80%,100%,40%,80%,30%,–,–
"CC(Oc1ccc(F)cc1Cl)C(=O)OC(C)P1(=O)OCC(C)(C)CO1 (stereo not drawn) [Compound 41, 2-(2-chloro-4-fluorphenoxyisopropylacyloxy)(methyl)methyl-5,5-dimethyl-1,3,2-dioxaphosphorinan-2-one phosphonate]",70%,60%,60%,70%,70%,80%,60%,0%,0%,70%,40%,90%,100%,90%,80%,60%,60%,–
"CC(Oc1ccc(F)cc1)C(=O)OC(C)P1(=O)OCC(C)(C)CO1 (stereo not drawn) [Compound 44, 2-(4-fluorphenoxyisopropylacyloxy)(methyl)methyl-5,5-dimethyl-1,3,2-dioxaphosphorinan-2-one phosphonate]",60%,60%,50%,0%,0%,80%,30%,0%,0%,0%,0%,70%,100%,30%,30%,30%,–,–
"CC(OC(=O)COc1cccc(C(F)(F)F)c1)P1(=O)OCC(C)(C)CO1 (stereo not drawn) [Compound 45, 2-(3-trifluormethylphenoxyethylacyloxy)(methyl)methyl-5,5-dimethyl-1,3,2-dioxaphosphorinan-2-one phosphonate]",75%,50%,50%,70%,60%,90%,60%,0%,0%,80%,60%,85%,85%,30%,98%,50%,–,–
